According to patent US5621102A, “Process for preparing enantiomerically pure xanthine derivatives” (Cell Therapeutics, Inc., priority 1995, dated 1997):

What was measured:
[1] = tested on: smooth muscle cells; experiment: smooth muscle proliferation stimulated by PDGF and IL-1; type: cell-based; settings: drug added two hours prior to activation
Source text: CT1501R and PTX were separately added to the cells two hours prior to activation with PDGF and IL-1.

[2] = tested on: PBMC (peripheral blood mononuclear cells); experiment: two-way mixed lymphocyte reaction (MLR); type: cell-based, human
Source text: Various in vitro assays can be used to measure effects of the inventive compounds to module immune activity and have antitumor activity using a variety of cellular types. For example, a mixed lymphocyte reaction (MLR) provides a valuable screening tool to determine biological activity of each inventive compound. In the MLR, PBMCs (peripheral blood mononuclear cells) are obtained by drawing whole blood from healthy volunteers in a heparinized container and diluted with an equal volume of hanks balanced salt solution (HBSS). This mixture is layered on a sucrose density gradient, such as a Ficoll-Hypaque® gradient (specific gravity 1.08), and centrifuged at 1000×g for 25 minutes at room temperature or cooler. PBMC are obtained from a band at a plasma-Ficoll interface, separated and washed at least twice in a saline solution, such as HBSS. Contaminating red cells are lysed, such as by ACK lysis for 10 min at 37° C., and the PBMCs are washed twice in HBSS. The pellet of purified PBMCs is resuspended in complete medium, such as RPMI 1640 plus 20% human inactivated serum. Proliferative response of PBMC to allogeneic stimulation is determined in a two-way MLR performed in a 96-well microliter plate. […] At the conclusion of the incubation tritiated thymidine is added (for example, 1 μCi/well of 40 to 60 Ci/mmole) and proliferation determined by liquid scintillation counting. […]

[3] = tested on: hair follicles of nu/nu mice; experiment: nude mouse hair studies, topical application; type: in vivo; settings: second experiment; 60% ETOH, 10% water, 30% PEG base, twice daily, 34 days
Source text: This example illustrates nude mouse hair studies involving topical application of CT1501R. Six to eight week old, female, nu/nu mice from Charles River Laboratories were housed at Biosupport Research Support Services (Seattle, Wash.) in autoclaved micro isolator units with hyperchlorinated autoclaved water, irradiated rodent chow and kept under a laminar flow hood. Caging was changed weekly, and water was changed twice weekly. The mice were acclimated for 5 days before beginning each study.
The first topical formulation was prepared by adding CT1501R to a heated hydrophilic ointment (USP) at a 1% concentration, and allowed to solidify.
Nude mice were painted twice daily for 16 days with the first topical formulation of CT1501R on the left flank and another compound in the same base on the right flank with sterile applicators. Mice were handled under the laminar flow hood with applicator wearing face mask and sterile gloves. After 16 days, one mouse was sacrificed by cervical dislocation and skin biopsies were taken of the treated areas of the shoulder/flank and from the non-treated area of the dorsal pelvis (rump). Specimens were placed in 10% buffered formalin solution. Biopsies were sent to a veterinary dermopathologist for histopathology. Six weeks following treatment, a second mouse was euthanatized and biopsied the same as the first. Samples were sent for histopathology.
In a second experiment, topical application of CT1501R was performed along with a commercial topical minoxidil preparation (Rogaine®, Upjohn) that is approved for a hair growth indication. Five to six week old, female, nu/nu mice from Bantin and Kingman Universal were housed at Biosupport Research Support Services (Seattle, Wash.) in autoclaved micro isolator units with hyper chlorinated autoclaved water, irradiated rodent chow and kept under a laminar flow hood. Caging was changed weekly, and water was changed twice weekly. Mice were acclimated for 7 days before beginning study, […]

SMILES | inhibition of smooth muscle cell proliferation [1] | proliferative response of PBMC to allogeneic stimulation [2] | hair follicles, subjective histopathological examination [3]
CC(=O)CCCCn1c(=O)c2c(ncn2C)n(C)c1=O [PTX, 1-(5-oxohexyl)-3,7-dimethylxanthine, reference compound] | inhibited smooth muscle cell proliferation at the higher doses tested | showed dose-response activity | –
Nc1cc(N2CCCCC2)nc(N)[n+]1[O-] [minoxidil, reference compound] | – | – | fair response to treatment
